Experimental data reported in US10471095B2, “Suspension of graphene oxide nanoflakes in water, its use and a method of preparation thereof” (priority 2014, dated 2019).

System: chicken embryo
Assay: Toxicity of graphene oxide and nano-Pt in chicken embryo (in ovo)
Conditions: in vivo
Method: Biological models: study was conducted on models: 1. Chicken embryo maintained by in ovo method, which above all allowed for fast, accurate and insightful observations of potential toxicity, especially embryotoxicity of graphene oxide and Pt nanoparticles of various concentrations. 2. Glioblastoma multiforme GM (U-87) cell lines in order to observe basic mechanisms occurring in the cells under the influence of graphene oxide and platinum nanoparticles and having selected the used experimental factors 3. Glioblastoma multiforme (U-87) tumour grown by in ovo method in order to confirm or reject the preliminary results. This study allowed for the final verification of formulated hypotheses.
Step I—preliminary study—determination of potential toxic properties of graphene oxide and nano-Pt in contact with a living organism (chicken embryo) • Determination of the influence of graphene oxide and nano-Pt on homeostasis of the organism of chicken embryo (survival rate, growth and development, biochemical and morphological indicators of blood, expression of selected genes, image of microstructure and ultrastructure of the brain, apoptosis/necrosis and others). […] The study indicated a potential antitumor effect of Pt nanoparticles and a low degree of toxicity.

With graphene oxide the “toxic effects on biochemical and morphological indicators of blood, FGF, VEGF, PCNA gene expression, microstructure and ultrastructure of brain and liver” value was “does not exhibit toxic effects”.
